Measured values as given in patent US20150274834A1, “COMBINATION THERAPY OF AN AFUCOSYLATED CD20 ANTIBODY WITH FLUDARABINE AND/OR MITOXANTRONE” (Roche Glycart AG, priority 2009, published 2015).

Assays:
[1] = system: NHL cell lines (Granta-519, HBL-2, Jeko-1, Rec-1, Z-138, Karpas-422); assay: Trypan blue exclusion viability/proliferation test, NHL cell line panel; assay type: cell-based; details: chemotherapeutic alone (Fludarabine 0.25 μg/ml; Mitoxantrone 0.25 and 0.5 μg/ml), across cell lines
Excerpt: The following Non-Hodgkin Lymphoma (NHL) cell lines were used in the experiments: Granta-519, HBL-2, Rec-1 and Z-138 as Mantle Cell Lymphoma cell lines and a Karpas-422 as a Diffuse Large B-Cell Lymphoma cell line. All cell lines were obtained from the “Deutsche Sammlung von Mikroorganismen and Zellkulturen GmbH” (DSMZ), Braunschweig, Germany. […] Granta 519, HBL-2, JeKo-1, Rec-1 and Z-138 were cultivated in RPMI-1640 medium with 10% heat-inactivated FCS and 1% Penicillin/Streptomycin. The density of viable cells was determined with BeckmanCoulter ViCell™ Cell Viability Analyzer on the basis of the trypan blue cell exclusion method. The test is based on the principle that viable cells have an intact cell membrane that blocks the uptake of trypan blue whereas dead cells have lost this ability. Therefore viable cells have a transparent cytoplasm whereas dead cells can be identified due to their blue cytoplasm. […] Trypan-blue exclusion tests were used to analyze cell viability. […] These concentrations were determined in pre-experiments on MCL cells • 1. 0.25 μg/ml Fludarabine • 2. 0.25 and 0.5 μg/ml Mitoxantrone 1 ml samples were taken at 0 h, 24 h, 48 h, 72 h every day and the number of viable cells was determined. […] Experiments were independently performed three times.

[2] = system: human Z138 mantle cell lymphoma xenograft; assay: Tumor growth inhibition study in vivo, Z138 xenograft; design: species or system SCID beige mice; details: day 36 after tumor cell inoculation; antibodies 1 mg/kg i.v. day 22 and 29; fludarabine 40 mg/kg i.p. day 22-25
Method: Antibody buffer included histidine, trehalose and polysorbate 20.
Cells were co-injected with Matrigel.
Experimental study protocol was reviewed and approved by local government. […] Continuous health monitoring was carried out on regular basis. Diet food (Provimi Kliba 3337) and water (acidified pH 2.5-3) were provided ad libitum.
Animals were controlled daily for clinical symptoms and detection of adverse effects.
The corresponding vehicle was administered on the same days.

[3] = system: Granta-519 MCL cells; assay: Trypan blue exclusion viability/proliferation test, Granta-519; assay type: cell-based; details: mono-exposure 1 μg/ml
Method: (§1) The following Non-Hodgkin Lymphoma (NHL) cell lines were used in the experiments: Granta-519, HBL-2, Rec-1 and Z-138 as Mantle Cell Lymphoma cell lines and a Karpas-422 as a Diffuse Large B-Cell Lymphoma cell line. All cell lines were obtained from the “Deutsche Sammlung von Mikroorganismen and Zellkulturen GmbH” (DSMZ), Braunschweig, Germany.
(§2) All cell lines were stored according to standard procedures and cultivated at 37° C., 5% CO2- and 95% relative humidity in a CO2 incubator. Granta 519, HBL-2, JeKo-1, Rec-1 and Z-138 were cultivated in RPMI-1640 medium with 10% heat-inactivated FCS and 1% Penicillin/Streptomycin.
(§3) The density of viable cells was determined with BeckmanCoulter ViCell™ Cell Viability Analyzer on the basis of the trypan blue cell exclusion method. The test is based on the principle that viable cells have an intact cell membrane that blocks the uptake of trypan blue whereas dead cells have lost this ability. Therefore viable cells have a transparent cytoplasm whereas dead cells can be identified due to their blue cytoplasm.
(§4) Trypan-blue exclusion tests were used to analyze cell viability.
(§5) These concentrations were determined in pre-experiments on MCL cells • 1. 0.25 μg/ml Fludarabine • 2. 0.25 and 0.5 μg/ml Mitoxantrone
(§6) 1 ml samples were taken at 0 h, 24 h, 48 h, 72 h every day and the number of viable cells was determined. […]

[4] = system: Rec-1 MCL cells; assay: Trypan blue exclusion viability/proliferation test, Rec-1; assay type: cell-based; details: mono-exposure 1 μg/ml
Method: as §1, §2, §3, §4, §5, §6

[5] = system: HBL-2 MCL cells; assay: Trypan blue exclusion viability/proliferation test, HBL-2; assay type: cell-based; details: mono-exposure 1 μg/ml
Method: as §1, §2, §3, §4, §5, §6

[6] = system: Jeko-1 MCL cells; assay: Trypan blue exclusion viability/proliferation test, Jeko-1; assay type: cell-based; details: mono-exposure 1 μg/ml
Method: as §2, §3, §4, §5
1 ml samples were taken at 0 h, 24 h, 48 h, 72 h every day and the number of viable cells was determined. The reduction of cell proliferation was used for a fractional product calculation (synergism >0.1; additive effect −0.1<x<0.1; antagonism <−0.1). Experiments were independently performed three times.

| Compound | cell reduction [1] | tumor growth inhibition compared to the control group [2] | cell reduction [3] | cell reduction [4] | cell reduction [5] | cell reduction [6] |
| --- | --- | --- | --- | --- | --- | --- |
| O=C1c2c(O)ccc(O)c2C(=O)c2c(NCCNCCO)ccc(NCCNCCO)c21 [Mitoxantrone, 1,4-dihydroxy-5,8-bis[2-(2-hydroxyethylamino)ethylamino]-anthracene-9,10-dione] | 80-95% | – | – | – | – | – |
| B-HH6-B-KV1 GE: afucosylated type II anti-CD20 antibody; humanized B-Ly1 IgG1, VH SEQ ID NO: 7 (B-HH6), VL SEQ ID NO: 20 (B-KV1), glycoengineered | – | 86% | 65-75% | 30-45% | 20-30% | 5% |
